Results on eleven compounds are retold here after US7786141B2 (Vertex Pharmaceuticals Incorporated, priority 2004, dated 2010).

Where two headings read alike, the source gives them in different places.

Test [1] addresses T1, M1 muscarinic receptor (Homo sapiens, UniProt P11229).
T1 construct: expressed in transfected cells; host or cells: CHO (M1-CHO)
T1 sequence (P11229 1-460): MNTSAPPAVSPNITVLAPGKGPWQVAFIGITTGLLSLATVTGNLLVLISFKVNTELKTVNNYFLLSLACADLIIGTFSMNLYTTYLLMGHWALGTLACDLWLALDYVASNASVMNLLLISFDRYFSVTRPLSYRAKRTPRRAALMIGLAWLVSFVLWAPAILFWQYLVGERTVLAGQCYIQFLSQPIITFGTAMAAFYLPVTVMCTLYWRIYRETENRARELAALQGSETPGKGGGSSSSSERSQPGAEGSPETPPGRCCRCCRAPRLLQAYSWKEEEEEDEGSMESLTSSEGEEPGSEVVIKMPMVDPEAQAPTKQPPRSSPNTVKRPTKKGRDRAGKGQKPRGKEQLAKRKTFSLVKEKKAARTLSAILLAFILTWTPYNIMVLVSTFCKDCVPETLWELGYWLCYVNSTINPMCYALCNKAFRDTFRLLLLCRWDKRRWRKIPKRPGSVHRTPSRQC
Description: Functional mobilization of intracellular calcium (FLIPR) in M1-CHO cells. It is filed as cell-based. How it is done:
(§1) Functional Mobilization of Intracellular Calcium to Determine Muscarinic Receptor Activity:
(§2) CHO cells expressing muscarinic receptors (M1 to M5) are grown as monolayers in tissue culture flasks at 37° C. in a humidified atmosphere containing 5% CO2 and passaged every 3-5 days. The growth media is Dulbecco's modified eagles medium (DMEM, Gibco Cat# 12430-054), containing 25 mM Hepes and supplemented with Fetal Bovine Serum (Hyclone, cat# SH30071.03), 0.1 mM of MEM non-essential amino acids (GIBCO, Cat# 11140-050), 1 mM MEM Sodium Pyruvate (GIBCO Cat# 11360-070) and 100 units/ml of Penicillin G and 100 μg/ml of Streptomycin (GIBCO Cat# 15140-122). The recombinant muscarinic receptor cell lines are grown under antibiotic pressure with media containing 25 μg/ml zeocin and 500 μg/ml G418 (M1-CHO), 4 μg/ml puromycin, 50 μg/ml zeocin and 2.5 μg/ml blasticidin (M2 and M4-CHO) or 50 μg/ml zeocin and 4 μg/ml puromycin (M3 and M5-CHO).
(§3) Cells are harvested at 80-90% confluence using Versene (GIBCO Cat# 15040-066), collected by centrifugation and seeded 18-24 hrs prior to running the calcium assay at a density of 5,000 cells/well in back-walled, clear-bottomed 384-well plates (BD Biocoat, poly-D-lysine, Cat#356663). The day of the experiment, the cells are washed with a plate washer (Bioteck Instruments, ELX 405) using bath 1 buffer (140-mM NaCl, 4.5-mM KCl, 2-mM CaCl2, 1-mM MgCl2, 10-mM Hepes-Na, 10-mM Glucose, pH 7.4, with NaOH) containing 1 mM Probenecid. Next, the calcium dye Fluo-3 (25 μl/well of Fluo-3 AM at 4 μM, Molecular Probes F-1241, in Bath 1 buffer containing 1 mM Probenecid) is added to the 25 μl of Bath 1 remaining in each well after the plate wash and the dye is loaded at 37° C. in the tissue culture incubator for 60-90 min. The fluorescent dye is removed using the plate washer with Bath 1 containing 1 mM Probenecid, leaving 25 μl/well of this solution after the wash. Alternatively, cells can be loaded with the calcium indicator from Molecular Devices (Calcium 3 Assay Reagents, Cat # R7181) adding 5 μl of a 5× solution dye in Bath 1 containing 1 mM Probenecid (10 ml per dye flask cat# R7182 to generate a solution 20×) to 20 μl of the same buffer. After loading for 60 min, the experiment can be run without having to remove the dye.
(§4) Compounds are prepared at a 2× fold concentration in a 96-well plate (round bottom, Costar Corning cat# 3656), by reconstituting the pre-spotted compounds in bath 1 containing 1 mM probenecid. The final concentration DMSO is 0.5%, and the amount of DMSO is normalized across the assay plate. To determine an agonist action of the compounds on muscarinic receptors, the reconstituted compounds are added (25 μl compound/well) to the cell assay plate (containing 25 μl/well) using the multi-channel robotic system of the FLIPR 3 Instrument (Molecular Devices, Sunnyvale, Calif.). To determine a functional inhibitory action of the compounds on muscarinic receptors, the reconstituted compounds are added (25 μl compound/well) to the assay plate and pre-incubated for 15 min prior to adding 25 μl of Carbachol at 3× the EC80 for each muscarinic subtype. Alternatively, the compounds can be co-applied simultaneously with the agonist. In both assay modes, the fluorescence is recorded for 60 sec (excitation wavelength is […] and emission wavelength 540 nm) using the FLIPR 3 instrument.
(§5) The potency, efficacy and selectivity of the muscarinic compounds were evaluated by screening the compound activity across the whole family (M1 to M5 cells). Compounds were also screened for activity on other proteins such as other GPCRs and ion channels to determine selectivity on M4 receptors.
Background: Calcium flux is commonly read through the fluorescence of an indicator in the cells.

Test [2] addresses T2, M4 muscarinic receptor (Homo sapiens, UniProt P08173).
T2 construct: expressed in transfected cells; host or cells: CHO (M4-CHO)
T2 sequence (P08173 1-479): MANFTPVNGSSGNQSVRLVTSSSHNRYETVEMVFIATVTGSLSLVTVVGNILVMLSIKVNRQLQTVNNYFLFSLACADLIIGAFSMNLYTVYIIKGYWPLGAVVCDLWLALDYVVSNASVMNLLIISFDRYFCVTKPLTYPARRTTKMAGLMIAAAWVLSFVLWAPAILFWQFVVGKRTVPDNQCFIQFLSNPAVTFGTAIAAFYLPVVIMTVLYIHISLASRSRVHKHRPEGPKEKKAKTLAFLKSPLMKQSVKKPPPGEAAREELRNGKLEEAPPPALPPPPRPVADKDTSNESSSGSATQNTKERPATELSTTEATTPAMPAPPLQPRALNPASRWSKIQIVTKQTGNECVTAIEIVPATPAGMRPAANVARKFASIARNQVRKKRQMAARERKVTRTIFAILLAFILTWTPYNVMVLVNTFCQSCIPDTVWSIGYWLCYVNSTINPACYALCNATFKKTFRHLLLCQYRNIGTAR
The experiment in a line: Functional mobilization of intracellular calcium (FLIPR) in M4-CHO cells. Format: cell-based. How it is done: as §1, §2, §3, §4, §5

The mark [3] stands for this setting: M1 receptor, calcium mobilization.
The mark [4] stands for this setting: M1 receptor, calcium mobilization, read-out: M1 Efficacy.
[5] abbreviates: M4 receptor, calcium mobilization.
[6] abbreviates: M4 receptor, calcium mobilization, read-out: M4 Efficacy.
[7] abbreviates: Table 4, 100% efficacy is the maximum response obtained with the Carbachol control.
[8] abbreviates: Table 4, modulating M1 receptor.
[9] abbreviates: Table 4, modulating M4 receptor.
Setting [10] is: Table 4, M1 receptor, calcium mobilization (FLIPR).
Setting [11] is: Table 4, M4 receptor, calcium mobilization (FLIPR).

In the case of `CCOC(=O)N1CCC(N2CCC3(CC2)CN(C(=O)c2cccc(OC)c2)c2ccc(F)cc23)CC1` [compound 45], in test [1] (setting [3]), the “M1 Activity” value is “xxx (activity was measured to be less than 0.1 μM)”. For the same compound, the Emax in test [1] (setting [4]) is above 85%; in test [2] (setting [6]), 65 to 85%. The “M4 Activity” value in test [2] (setting [5]) is reported as “xxx (activity was measured to be less than 0.1 μM)”.

As for `CN(C)C(=O)N1CC2(CCN(C3CCN(C(=O)CC4CCCC4=O)CC3)CC2)c2cc(F)ccc21` (centres unmarked) [compound 544], the figures for the Emax in test [1] (setting [7]) and in test [2] (setting [7]) were 25 to 100% and below 25%, respectively. Also, the “M1 Activity” value in test [1] (setting [8]) is “xx (activity was measured to be between 2.0 μM and 5.0 μM)”. Besides, in test [2] (setting [9]), the “M4 Activity” value is “xx (activity was measured to be between 2.0 μM and 5.0 μM)”.

In the case of `COc1ccc(F)cc1N1CCC(N2CCC3(CC2)CN(C(=O)N(C)C)c2ccc(F)cc23)CC1` [compound 814], the Emax in test [1] (setting [7]) and in test [2] (setting [7]) was 25 to 100% in each case. The “M1 Activity” value in test [1] (setting [10]) was “x (activity was measured to be greater than 5.0 μM)”. In addition, the “M4 Activity” value in test [2] (setting [11]) is “xx (activity was measured to be between 2.0 μM and 5.0 μM)”.

Regarding `Fc1ccc2c(c1)C1(CCN(C[C@H]3C[C@H]4CC[C@H]3O4)CC1)CN2` [compound 300], the “M1 Activity” value in test [1] (setting [3]) was “xx (activity was measured to be between 0.1 μM and 1.0 μM)”. In addition, the Emax is 65 to 85% in test [1] (setting [4]) and below 65% in test [2] (setting [6]). In addition, in test [2] (setting [5]), the “M4 Activity” value is on record as “x (activity was measured to be greater than 1.0 μM)”.

Regarding `CCOC(=O)N1CCC(N2CCC3(CC2)CN(C(=O)OC(C)C)c2ccc(F)cc23)CC1` [compound 145], the “M1 Activity” value in test [1] (setting [3]) is on record as “xxx (activity was measured to be less than 0.1 μM)”. Moreover, the Emax in test [1] (setting [4]) and in test [2] (setting [6]) was above 85% throughout. Also, in test [2] (setting [5]), the “M4 Activity” value was “x (activity was measured to be greater than 1.0 μM)”.

As to `C#CCCOC(=O)N1C2CCC1CC(N1CCC3(CC1)CN(C(=O)N(C)C)c1ccc(F)cc13)C2` (centres unmarked) [compound 230], the “M1 Activity” value in test [1] (setting [3]) is “x (activity was measured to be greater than 1.0 μM)”. In addition, the results for the Emax in test [1] (setting [4]) and in test [2] (setting [6]) were below 65% and above 85%, respectively. The “M4 Activity” value in test [2] (setting [5]) is “xx (activity was measured to be between 0.1 μM and 1.0 μM)”.

On to `CCOC(=O)N1CCC(N2CCC3(CC2)CN(c2cncnc2)c2ccccc23)CC1` [compound 905], for which the Emax in test [1] (setting [7]) and in test [2] (setting [7]) was 25 to 100% in each case. Further, the “M1 Activity” value in test [1] (setting [10]) is “xxx (activity was measured to be less than 2.0 μM)”. Besides, in test [2] (setting [11]), the “M4 Activity” value is “xxx (activity was measured to be less than 2.0 μM)”.

`CCC(C)C(=O)N1C2CCC1CC(N1CCC3(CC1)CN(C(C)=O)c1ccccc13)C2` (centres unmarked) [compound 743]: the Emax in test [1] (setting [7]) and in test [2] (setting [7]) was below 25% each time. In addition, the “M1 Activity” value in test [1] (setting [8]) is recorded as “x (activity was measured to be greater than 5.0 μM)”. In test [2] (setting [9]), the “M4 Activity” value was “x (activity was measured to be greater than 5.0 μM)”.

As for `O=C(O)C1CC2(CCN(CC3CCCC3)CC2)c2ccccc21` (centres unmarked) [compound 548], the Emax in test [1] (setting [7]) and in test [2] (setting [7]) was below 25% throughout. Further, the “M1 Activity” value in test [1] (setting [8]) was “x (activity was measured to be greater than 5.0 μM)”. Also, in test [2] (setting [9]), the “M4 Activity” value was “x (activity was measured to be greater than 5.0 μM)”.

Consider `C#CCOC(=O)N1CCC(N2CCC3(CC2)CN(C(C)=O)c2ccccc23)CC1` [compound 947], for which the Emax is above 100% in test [1] (setting [7]) and 25 to 100% in test [2] (setting [7]). For the same compound, the “M1 Activity” value in test [1] (setting [10]) was “xxx (activity was measured to be less than 2.0 μM)”. The “M4 Activity” value in test [2] (setting [11]) was “xxx (activity was measured to be less than 2.0 μM)”.

Regarding `CCOC(=O)N1CCC(N2CCC3(CC2)CN(C(C)=O)c2ccc(OC)cc23)CC1` [compound 340], in test [1] (setting [3]), the “M1 Activity” value was “xx (activity was measured to be between 0.1 μM and 1.0 μM)”. Besides, the Emax in test [1] (setting [4]) and in test [2] (setting [6]) was below 65% throughout. Besides, the “M4 Activity” value in test [2] (setting [5]) is recorded as “x (activity was measured to be greater than 1.0 μM)”.
